According to paper PMC5555576, “Selective small-chemical inhibitors of protein arginine methyltransferase 5 with anti-lung cancer activity” (PLoS ONE, 2017):

Experiments:
PRMT5 F225M = test: Radioactive methyltransferase assay, mutant PRMT5; type: biochemical, human; conditions: Phe225 to Met
Protocol: Methylation reactions were performed as previously described with a few modifications. Reaction mixtures (40 μl) containing 1.2 μg of PRMT5, 98 ng of PRMT1 or 98 ng of PRMT3; 2 μg of SmD3 or histones; 1 μCi of S-[methyl-^3H]adenosylmethionine (H^3-AdoMet; PerkinElmer); and 5 μM AdoMet were incubated in 50 mM Tris-HCl (pH 7.5)–1 mM EGTA–1 mM EDTA at 30°C for 2 h. Reaction mixtures (20 μl) were boiled in 5 μl of 5x SDS sample buffer and separated on a 15% polyacrylamide gel. Gels were fixed for 30 min in 40% methanol–10% acetic acid, incubated in 20 ml of Amplify (Amersham Life Science) for 10 min, dried and exposed to X-ray film at -80°C. IC50 was calculated by linear regression analysis of percent inhibition. The other half (20 μl) of each reaction mixture was spread onto DE81 chromatography paper discs (Whatman). The paper discs were washed 4 times with 50 mM NaHCO3 and dried. The amounts of methylated products were quantified by liquid scintillation.
The inhibitory activity of the compounds may stem from this interaction. To test this possibility, we conducted site-directed mutagenesis to mutate Phe225 in human PRMT5 (corresponding to Phe379 in the C. elegans PRMT5) to Met. The mutated PRMT5 was expressed in bacteria and purified by Ni-nitrilotriacetic acid (Ni-NTA) affinity chromatography (Fig 4A). The activity of the mutant PRMT5 was examined by the radioactive methyltransferase assay. […] The IC50 values for the mutant PRMT5 increased from 4.3 to 183 folds higher than those for the wild type PRMT5 (Fig 4D). […] The results also can help explain the specificity of the compounds to PRMT5. However, the contribution of this interaction to inhibition varies among the compounds. For example, compound C2 interacts with three amino acid residues (Lys451, Glu450, and Phe379) (Fig 3A) with the mutation of Phe to Met resulting in a 50-times higher IC50 (Fig 4C and 4D).
Fig 4 The conserved phenylalanine residue in PRMT5 is critical for inhibition by the five compounds. A, DS-PAGE of recombinant wild type (WT) and F225M mutant (MT) PRMT5. The gel was stained with Coomassie Brilliant Blue R250. A band corresponding to an unknown bacterial protein is indicated (star). B, The F225M mutation increased the methytransferase activity of PRMT5. In vitro methylation reactions were performed with recombinant wild type (lanes 2–4) or mutant (lanes 5–7) PRMT5 (1.2, 2.4 or 4.8 μg) and SmD3 (2 μg) as the substrate. C, The F225M mutation in PRMT5 decreased inhibition of arginine methylation by the compounds. The reaction mixture contained SmD3 (2 μg); wild type or mutant PRMT5 (1.2 μg); and 1, 10 or 100 μM compounds as indicated. D, The F225M mutation in PRMT5 […] of the compounds, as determined by quantitation and analysis of methylation assay results. TEXT PRINTED IN THE PICTURE: (D) C2: IC50 (μM) PRMT5: 0.1; IC50 (μM) PRMT5 F225M: 5.0 | (D) C5: IC50 (μM) PRMT5: 0.8; IC50 (μM) PRMT5 F225M: 3.5 | (D) C6: IC50 (μM) PRMT5: 0.5; IC50 (μM) PRMT5 F225M: 7.0 | (D) C9: IC50 (μM) PRMT5: 6.0; IC50 (μM) PRMT5 F225M: 45.0 | (D) C11: IC50 (μM) PRMT5: 0.3; IC50 (μM) PRMT5 F225M: 55.0

[1] = tested on: histone H2A arginine methylation in lung tumor xenografts; test: Western blot of histone symmetric dimethylarginine in lung tumors; type: in vivo, nude mice; conditions: 100 mg/kg oral, 21 days, SYM10 antibody
Protocol: Histones were purified as reported previously. Briefly, cells (1–5 x 10^6) or lung tumors (10–100 mg) were lysated using a glass dounce in 1 ml of 1x Passive Lysis Buffer (Promega) and nuclear pellets were collected by centrifugation at 3,000 rpm for 5 min at 4 °C. The supernatant was discard and the pellets were washed with 1 ml of 1x Passive Lysis Buffer. Nuclear pellets were resuspended in 0.4 ml of the buffer (10 mM Trs-HCl, pH7.9, 0.2 mM EDTA, 1 mM DTT, 20% glycerol, 0.42 M KCl) and incubate for 30 min on ice, and centrifuged at 12,000 rpm for 10 min at 4 °C. The supernatant (histones extract) was transferred to a new tube and histones were precipitated by 20% trichloroacetic acid.
Protein extracts or histones (20 μg) were subjected to 10% or 15% sodium dodecyl sulfate-polyacrylamide gel electrophoresis, respectively then transferred to Immobilon-P membranes (Millipore). […] Immunoreactive proteins were detected using an enhanced chemiluminescence detection system (GE Healthcare) per the manufacturer’s instructions. Protein concentrations were determined using the Bradford protein assay reagent (Bio-Rad).
Fig 9 The compound C9a inhibited growth of lung tumor xenografts in nude mice. […] Histones were isolated from tumors and analyzed by SDS-PAGE stained with Commassie blue R250 (bottom) or by Western blot with anti-symmetric dimethyl arginine antibody (SYM10) (top). […]

increase of IC50 for mutant PRMT5 over wild type PRMT5 (PRMT5 F225M) | Structure (SMILES) | arginine methylation in histone H2A in lung tumors [1]
4.3 fold | CCn1c(=O)[nH]c2cc(C(=O)Nc3ccc(OC)cc3)ccc2c1=O [Compound C5] | 
 | Nc1cccc(Nc2ncnc3c2cnn3Cc2ccccc2)c1 [Compound C9a] | significantly inhibited
